According to publication PMC4512978, “Synthesis and evaluation in rats of homologous series of [^18F]-labeled dopamine D2/3 receptor agonists based on the 2-aminomethylchroman scaffold as potential PET tracers” (EJNMMI Research, 2015):

Tested on: D2/3R
Assay: Kinetic analysis of PET data (1TCM, 2TCM, Logan, SRTM);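 as to 2TCM BPND change relative to control: Raclopride 1 mg/kg intravenous pretreatment versus saline controls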;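 as to SRTM BPND change relative to control: Raclopride 1 mg/kg intravenous pretreatment versus saline controls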
Type: in vivo, Sprague-Dawley rats
Design: key to SRTM BPND / 1TCM BPND / 2TCM BPND (VT-based): BPND = VT(target)/VT(cerebellum) − 1 (or SRTM, cerebellum reference); SRTM BPND change relative to control / 1TCM BPND change relative to control / 2TCM BPND change relative to control / Logan BPND change relative to control: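 Raclopride 1 mg/kg intravenous pretreatment versus saline controls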; 1TCM VT / 2TCM VT: unit not given here
Procedure: Kinetic analysis is described using the nomenclature proposed by Innis et al.. ROI TACs of [^18F]FEt-AMC13 were analyzed with one-tissue and two-tissue compartmental models of reversible binding (1TCM and 2TCM, respectively) to obtain individual rate constants. From these, the regional distribution volumes (VT) were calculated and compared to those obtained with Logan graphical analysis. Binding potentials (BPND) were calculated from the distribution ratios as VT (target) / VT (cerebellum) – 1, or estimated with the simplified reference tissue model (SRTM) using the cerebellum as reference region.
Metabolite-corrected plasma-derived arterial input function and whole blood time-activity curve were used for Logan, 1TCM, and 2TCM analyses. Fractional cerebral blood volume was set to 3.6 % [27]. For one rat in the raclopride-treated group, no input curves could be obtained; therefore, its PET data were only analyzed with SRTM.
Degree of D2/3R-specific binding of the tracers was characterized by BPND (as given above) or the specific binding ratio (SBR) given as target region activity/cerebellar activity - 1. Both were calculated under control conditions and in response to the raclopride challenge.

[1] = Hypothalamus, raclopride, listed as [18F]FEt-AMC13
[2] = Olfactory bulbs, raclopride, listed as [18F]FEt-AMC13

1TCM VT (Hypothalamus, raclopride): 5.38±0.38
2TCM VT (Hypothalamus, raclopride): 5.83±0.34
Logan VT (Hypothalamus, raclopride): 5.76±0.26
1TCM VT (Olfactory bulbs, control): 4.99±0.62
2TCM VT (Olfactory bulbs, control): 5.45±0.52
Logan VT (Olfactory bulbs, control): 5.64±0.57
1TCM VT (Olfactory bulbs, raclopride): 4.36±0.55
2TCM VT (Olfactory bulbs, raclopride): 5.02±0.61
Logan VT (Olfactory bulbs, raclopride): 5.14±0.43
1TCM VT (Pituitary, control): 6.16±0.35
2TCM VT (Pituitary, control): 6.89±0.32
Logan VT (Pituitary, control): 7.15±0.49
1TCM VT (Pituitary, raclopride): 5.33±0.88
2TCM VT (Pituitary, raclopride): 6.34±0.82
Logan VT (Pituitary, raclopride): 6.53±0.44
SMILES: Oc1ccc2c(c1)O[C@@H](CNCc1ccc(OCC[18F])cc1)CC2 [[^18F]FEt-AMC13]
2TCM k4 (Hypothalamus, control rat D): 0.09 ± 0.01 min⁻¹
1TCM BPND (Hypothalamus, raclopride): 0.22±0.04
1TCM BPND change relative to control (Hypothalamus, raclopride): -14%
2TCM BPND (VT-based) (Hypothalamus, raclopride): 0.18 ± 0.06
2TCM BPND change relative to control (Hypothalamus, raclopride): −19%
Logan BPND (Hypothalamus, raclopride): 0.16±0.04
Logan BPND change relative to control (Hypothalamus, raclopride): -25%
SRTM BPND (Hypothalamus, raclopride): 0.16 ± 0.04
SRTM BPND change relative to control (Hypothalamus, raclopride): −23%
2TCM BPND (VT-based) [1]: 0.18±0.06
2TCM BPND change relative to control [1]: -19%
SRTM BPND [1]: 0.16±0.04
SRTM BPND change relative to control [1]: –23%
1TCM BPND (Olfactory bulbs, control): 0.07±0.16
2TCM BPND (VT-based) (Olfactory bulbs, control): 0.08 ± 0.13
Logan BPND (Olfactory bulbs, control): 0.12±0.12
SRTM BPND (Olfactory bulbs, control): 0.10 ± 0.13
1TCM K1 (Olfactory bulbs, control rat A): 0.55 ± 0.05 mL/g/min
1TCM k2 (Olfactory bulbs, control rat A): 0.12 ± 0.02 min⁻¹
2TCM K1 (Olfactory bulbs, control rat A): 3.58 ± 1.65 mL/g/min
2TCM k2 (Olfactory bulbs, control rat A): 9.75 ± 3.75 min⁻¹
2TCM k3 (Olfactory bulbs, control rat A): 1.20 ± 2.96 min⁻¹
2TCM k4 (Olfactory bulbs, control rat A): 0.09 ± 7.03 min⁻¹
1TCM K1 (Olfactory bulbs, control rat B): 0.49 ± 0.02 mL/g/min
1TCM k2 (Olfactory bulbs, control rat B): 0.08 ± 0.01 min⁻¹
2TCM K1 (Olfactory bulbs, control rat B): 0.63 ± 0.07 mL/g/min
2TCM k2 (Olfactory bulbs, control rat B): 0.47 ± 0.34 min⁻¹
2TCM k3 (Olfactory bulbs, control rat B): 0.69 ± 0.56 min⁻¹
2TCM k4 (Olfactory bulbs, control rat B): 0.20 ± 0.04 min⁻¹
1TCM K1 (Olfactory bulbs, control rat C): 0.44 ± 0.01 mL/g/min
1TCM k2 (Olfactory bulbs, control rat C): 0.09 ± 0.005 min⁻¹
2TCM K1 (Olfactory bulbs, control rat C): 0.59 ± 0.10 mL/g/min
2TCM k2 (Olfactory bulbs, control rat C): 0.68 ± 0.93 min⁻¹
2TCM k3 (Olfactory bulbs, control rat C): 1.07 ± 3.21 min⁻¹
2TCM k4 (Olfactory bulbs, control rat C): 0.23 ± 3.75 min⁻¹
1TCM K1 (Olfactory bulbs, control rat D): 0.50 ± 0.03 mL/g/min
1TCM k2 (Olfactory bulbs, control rat D): 0.10 ± 0.01 min⁻¹
2TCM K1 (Olfactory bulbs, control rat D): 1.08 ± 0.20 mL/g/min
2TCM k2 (Olfactory bulbs, control rat D): 1.82 ± 0.90 min⁻¹
2TCM k3 (Olfactory bulbs, control rat D): 0.92 ± 0.31 min⁻¹
2TCM k4 (Olfactory bulbs, control rat D): 0.11 ± 0.01 min⁻¹
1TCM BPND (Olfactory bulbs, raclopride): -0.02±0.03
1TCM BPND change relative to control (Olfactory bulbs, raclopride): -127%
2TCM BPND (VT-based) (Olfactory bulbs, raclopride): 0.01 ± 0.04
2TCM BPND change relative to control (Olfactory bulbs, raclopride): −88%
Logan BPND (Olfactory bulbs, raclopride): 0.03±0.03
Logan BPND change relative to control (Olfactory bulbs, raclopride): -74%
SRTM BPND (Olfactory bulbs, raclopride): 0.11 ± 0.05
SRTM BPND change relative to control (Olfactory bulbs, raclopride): +10%
2TCM BPND (VT-based) [2]: 0.01±0.04
2TCM BPND change relative to control [2]: -88%
SRTM BPND [2]: 0.11±0.05
1TCM BPND (Pituitary, control): 0.32±0.05
2TCM BPND (VT-based) (Pituitary, control): 0.36 ± 0.07
Logan BPND (Pituitary, control): 0.42±0.05
SRTM BPND (Pituitary, control): 0.71 ± 0.32
1TCM K1 (Pituitary, control rat A): 0.52 ± 0.05 mL/g/min
1TCM k2 (Pituitary, control rat A): 0.08 ± 0.02 min⁻¹
2TCM K1 (Pituitary, control rat A): 6.16 ± 6.57 mL/g/min
2TCM k2 (Pituitary, control rat A): 16.8 ± 16.5 min⁻¹
2TCM k3 (Pituitary, control rat A): 1.11 ± 15.04 min⁻¹
2TCM k4 (Pituitary, control rat A): 0.06 ± 22.82 min⁻¹
1TCM K1 (Pituitary, control rat B): 0.63 ± 0.04 mL/g/min
1TCM k2 (Pituitary, control rat B): 0.10 ± 0.01 min⁻¹
2TCM K1 (Pituitary, control rat B): 1.23 ± 0.31 mL/g/min
2TCM k2 (Pituitary, control rat B): 1.62 ± 0.42 min⁻¹
2TCM k3 (Pituitary, control rat B): 0.99 ± 1.42 min⁻¹
2TCM k4 (Pituitary, control rat B): 0.12 ± 2.70 min⁻¹
1TCM K1 (Pituitary, control rat C): 0.52 ± 0.02 mL/g/min
1TCM k2 (Pituitary, control rat C): 0.08 ± 0.01 min⁻¹
2TCM K1 (Pituitary, control rat C): 0.97 ± 0.34 mL/g/min
2TCM k2 (Pituitary, control rat C): 1.54 ± 0.73 min⁻¹
2TCM k3 (Pituitary, control rat C): 1.23 ± 2.61 min⁻¹
2TCM k4 (Pituitary, control rat C): 0.13 ± 4.28 min⁻¹
1TCM K1 (Pituitary, control rat D): 0.67 ± 0.05 mL/g/min
1TCM k2 (Pituitary, control rat D): 0.12 ± 0.02 min⁻¹
2TCM K1 (Pituitary, control rat D): 1.38 ± 0.24 mL/g/min
2TCM k2 (Pituitary, control rat D): 1.48 ± 0.20 min⁻¹
2TCM k3 (Pituitary, control rat D): 0.69 ± 0.58 min⁻¹
2TCM k4 (Pituitary, control rat D): 0.11 ± 1.34 min⁻¹
1TCM BPND (Pituitary, raclopride): 0.18±0.05
1TCM BPND change relative to control (Pituitary, raclopride): -38%
2TCM BPND change relative to control (Pituitary, raclopride): −23%
Logan BPND change relative to control (Pituitary, raclopride): -26%
